Measurements reported in publication PMC10623572, “Subtle Structural Modification of a Synthetic Cannabinoid Receptor Agonist Drastically Increases its Efficacy at the CB1 Receptor” (ACS Chemical Neuroscience, 2023).

Key:
[1] = target: T1, CB1R (presynaptic, mouse hippocampus) (Mus musculus, UniProt P47746); assay: fEPSP field recording, inhibition of glutamate release in hippocampal slices; details: agonist; native presynaptic receptor, downstream read-out; 31-32 °C; 50 µM caffeine; reversed by AM251
T1 construct: gene Cnr1; native receptor in hippocampal brain slices
T1 sequence (P47746 whole entry): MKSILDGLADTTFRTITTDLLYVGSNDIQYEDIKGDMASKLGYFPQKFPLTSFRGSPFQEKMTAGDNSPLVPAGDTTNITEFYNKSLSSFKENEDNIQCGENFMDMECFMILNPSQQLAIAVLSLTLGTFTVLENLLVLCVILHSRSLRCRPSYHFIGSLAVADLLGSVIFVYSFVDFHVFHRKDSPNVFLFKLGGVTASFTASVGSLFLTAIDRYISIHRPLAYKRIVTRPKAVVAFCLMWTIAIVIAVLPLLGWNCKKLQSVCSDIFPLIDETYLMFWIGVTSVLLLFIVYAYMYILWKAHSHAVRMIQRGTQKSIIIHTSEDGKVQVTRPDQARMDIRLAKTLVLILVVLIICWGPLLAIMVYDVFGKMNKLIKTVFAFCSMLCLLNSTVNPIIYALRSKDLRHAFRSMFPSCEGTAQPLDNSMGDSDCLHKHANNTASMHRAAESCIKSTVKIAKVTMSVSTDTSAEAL

CB1R (CB1R-Rluc) [2] = target: T2, CB1R (CB1R-Rluc) (Homo sapiens, UniProt P21554); assay: BRET CB1R-Rluc/beta-arrestin 2-Venus recruitment; format: cell-based
T2 construct: gene CNR1; Rluc-fused receptor in HEK-293T cells; with mVenus-Gi1 plus Gbeta1/Ggamma2, or beta-arrestin 2-Venus plus GRK2
T2 sequence (P21554 whole entry, the tested form may be a part): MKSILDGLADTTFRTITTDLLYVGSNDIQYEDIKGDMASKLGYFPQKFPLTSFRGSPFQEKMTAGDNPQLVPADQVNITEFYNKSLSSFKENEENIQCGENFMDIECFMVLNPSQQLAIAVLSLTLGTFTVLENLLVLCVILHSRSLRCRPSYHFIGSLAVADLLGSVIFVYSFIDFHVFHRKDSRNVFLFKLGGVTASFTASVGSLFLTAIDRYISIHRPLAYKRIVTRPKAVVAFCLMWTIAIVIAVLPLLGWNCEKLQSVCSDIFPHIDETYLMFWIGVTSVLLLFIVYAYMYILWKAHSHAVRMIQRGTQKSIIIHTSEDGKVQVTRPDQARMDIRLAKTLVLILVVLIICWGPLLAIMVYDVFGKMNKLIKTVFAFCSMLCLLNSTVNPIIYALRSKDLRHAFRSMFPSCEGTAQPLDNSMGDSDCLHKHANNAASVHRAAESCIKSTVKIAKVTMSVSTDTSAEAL
Text: BRET CB1R-Rluc/beta-arrestin 2-Venus recruitment on CB1R (CB1R-Rluc)

CB1R (CB1R-Rluc) [3] = target: T2, CB1R (CB1R-Rluc); assay: BRET CB1R-Rluc/Gi1-Venus engagement; format: cell-based
[4] = read-out: 5F-MMB-PICA (converted)
[5] = read-out: 5F-SDB-006 (converted)

## COC(=O)C(NC(=O)c1cn(CCCCCF)c2ccccc12)C(C)(C)C (stereo not shown) [5F-MDMB-PICA]
[1]
  pEC50: 7.20

## COC(=O)C(NC(=O)c1cn(CCCCCF)c2ccccc12)C(C)C (stereo not shown) [5F-MMB-PICA]
CB1R (CB1R-Rluc) [2]; [4]
  EC50: 3630 nM
CB1R (CB1R-Rluc) [3]; [4]
  EC50: 2950 nM
[1]
  pEC50: 6.72

## O=C(Nc1cccc2ccccc12)c1cn(CCCCCF)c2ccccc12 [5F-NNEI]
CB1R (CB1R-Rluc) [2]; read-out: 5F-NNEI
  EC50: 5250 nM
CB1R (CB1R-Rluc) [3]; read-out: 5F-NNEI (converted)
  EC50: 4680 nM

## O=C(NCc1ccccc1)c1cn(CCCCCF)c2ccccc12 [5F-SDB-006]
CB1R (CB1R-Rluc) [2]; [5]
  EC50: 2450 nM
CB1R (CB1R-Rluc) [3]; [5]
  EC50: 1480 nM

## O=C(c1cccc2ccccc12)c1cn(CCCCCF)c2ccccc12 [AM2201]
CB1R (CB1R-Rluc) [2]; read-out: AM2201 (converted)
  EC50: 759 nM
CB1R (CB1R-Rluc) [3]; read-out: AM2201 (converted)
  EC50: 339 nM
